In patent US20050250794A1, “Methods of treating a disorder” (priority 2003, published 2005):
Like-named read-outs stand apart in the source and are kept apart here. Values belong to the compound of their own block, whether it stands above or below them.

Tests used:
[1] = biological target: T1, human SirT1 (Homo sapiens, UniProt Q96EB6); experiment: SirT1 Fluor de Lys enzymatic deacetylase assay; type: biochemical
T1 construct: purchased Biomol SE-239
T1 sequence (Q96EB6 1-747): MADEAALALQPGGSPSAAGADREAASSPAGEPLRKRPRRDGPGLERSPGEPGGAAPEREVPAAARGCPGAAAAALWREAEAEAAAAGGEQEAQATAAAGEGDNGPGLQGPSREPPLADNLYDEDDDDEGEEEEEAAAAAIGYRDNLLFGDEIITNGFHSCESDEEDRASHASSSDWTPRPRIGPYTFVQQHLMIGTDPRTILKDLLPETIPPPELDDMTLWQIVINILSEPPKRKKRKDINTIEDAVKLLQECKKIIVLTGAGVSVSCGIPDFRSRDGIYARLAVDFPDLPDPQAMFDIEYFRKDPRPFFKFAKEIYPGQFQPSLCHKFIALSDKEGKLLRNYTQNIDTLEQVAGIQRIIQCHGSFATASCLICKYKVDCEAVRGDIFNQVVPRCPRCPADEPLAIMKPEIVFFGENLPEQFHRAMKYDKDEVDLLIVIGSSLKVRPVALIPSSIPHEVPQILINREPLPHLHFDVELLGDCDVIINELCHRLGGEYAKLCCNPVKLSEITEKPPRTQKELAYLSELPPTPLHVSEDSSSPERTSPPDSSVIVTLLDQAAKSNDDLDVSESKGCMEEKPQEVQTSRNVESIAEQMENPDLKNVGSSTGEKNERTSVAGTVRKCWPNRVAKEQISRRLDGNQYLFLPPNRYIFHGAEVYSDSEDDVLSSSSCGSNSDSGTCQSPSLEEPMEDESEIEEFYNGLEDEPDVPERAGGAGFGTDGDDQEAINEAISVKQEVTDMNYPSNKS
From the text: An exemplary assay method includes a 1536 well format of the SirT1 enzymatic assay that is based on the commercial “Fluor-de-Lys” assay principle by Biomol, which is fluorogenic (www.biomol.com/store/Product_Data_PDFs/ak500.pdf). In this assay, deacetylation of the e-amino function of a lysyl residue is coupled to a fluorogenic “development step that is dependent on the unblocked e-amino functionality and generates fluorescent aminomethylcoumarin. Fluorescence can be read on a commercial macroscopic reader.
Step Description • 1 Prepare amount of 2× Substrates necessary for the number of wells to be assayed.

[2] = biological target: T2, SirT2 (Homo sapiens, UniProt Q8IXJ6); experiment: SirT2 activity (Tables 1 and 2); type: biochemical
T2 sequence (Q8IXJ6 1-389): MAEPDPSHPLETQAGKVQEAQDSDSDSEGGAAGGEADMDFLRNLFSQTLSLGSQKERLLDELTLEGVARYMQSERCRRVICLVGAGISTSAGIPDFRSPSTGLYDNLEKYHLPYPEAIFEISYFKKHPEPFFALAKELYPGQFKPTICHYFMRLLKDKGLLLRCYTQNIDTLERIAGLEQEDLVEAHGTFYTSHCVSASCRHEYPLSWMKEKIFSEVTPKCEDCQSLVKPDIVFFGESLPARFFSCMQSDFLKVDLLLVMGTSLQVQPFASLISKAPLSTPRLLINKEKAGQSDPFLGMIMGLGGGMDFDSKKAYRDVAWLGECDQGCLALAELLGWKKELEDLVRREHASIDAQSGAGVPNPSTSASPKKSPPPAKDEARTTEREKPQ

[3] = biological target: T3, GFP-hSIRT2 isoform 1 (Homo sapiens, UniProt Q8IXJ6); experiment: Acetylated tubulin staining in HeLa cells transfected with GFP-hSIRT2 isoform 1; type: cell-based; conditions: 50 μM compound with 1 μM TSA, added 36 hours post transfection, stained next morning; versus DMSO
T3 construct: expressed in transfected cells; host or cells: HeLa
T3 sequence (Q8IXJ6 1-389): T2 sequence (Q8IXJ6 1-389)
Protocol: HeLa cells were transfected with GFP-hSIRT2 isoform 1. At 36 hours post transfection 1 μM of TSA and either DMSO or 50 μM of Compound 8 was added. The next morning cells were fixed, permeabilized, and stained for acetylated tubulin.

[4] = Table 1, Activity of Triazoles (conc. in μM), read-out: SirT1
[5] = Table 1, Activity of Triazoles (conc. in μM)
[6] = Table 2, Activity of representative compounds (conc. in μM), read-out: SirT1
[7] = Table 2, Activity of representative compounds (conc. in μM)
[8] = Table 3, p53-382 Fluor de Lys substrate, read-out: SirT1 p53-382-FdL IC50

Compound: NC(=O)CSc1nnc(Cc2c[nH]c3ccccc23)n1Cc1ccccc1 [Compound 1, 2-[4-Benzyl-5-(1H-indol-3-ylmethyl)-4H-[1,2,4]triazol-3-ylsulfanyl]-acetamide]
IC50 [1, 4]: 1 to 10 µM | IC50 [2, 5]: > 10 µM

Compound: COc1ccc(-n2c(COc3cccc4ccccc34)nnc2SCC(N)=O)cc1 [Compound 2, 2-[4-(4-Methoxy-phenyl)-5-(naphthalen-1-yloxymethyl)-4H-[1,2,4]triazol-3-ylsulfanyl]-acetamide]
IC50 [1, 4]: 1 to 10 µM | IC50 [2, 5]: > 10 µM

Compound: Cc1ccc(-n2c(Cc3ccccc3)nnc2SCC(N)=O)cc1 [Compound 3, 2-(5-Benzyl-4-p-tolyl-4H-[1,2,4]triazol-3-ylsulfanyl)-acetamide]
IC50 [1, 4]: 1 to 10 µM | IC50 [2, 5]: > 10 µM

Compound: Cc1ccc(-n2c(SCC(N)=O)nnc2-c2ccccc2Br)cc1 [Compound 4, 2-[5-(2-Bromo-phenyl)-4-p-tolyl-4H-[1,2,4]triazol-3-ylsulfanyl]-acetamide]
IC50 [1, 4]: > 10 µM | IC50 [2, 5]: 1 to 10 µM

Compound: O=C(O)CSc1nc2sc3c(c2c(=O)n1C1CCCCC1)CCC3 [Compound 5, (5-Cyclohexyl-4-oxo-2,3,4,5-tetrahydro-1H-8-thia-5,7-diaza-cyclopenta[a]inden-6-ylsulfanyl)-acetic acid]
IC50 [1, 6]: 1 to 10 µM | IC50 [2, 7]: > 10 µM

Compound: NC(=O)Cn1c(=O)oc2cc(Br)ccc21 [Compound 6, 2-(6-Bromo-2-oxo-benzooxazol-3-yl)-acetamide]
IC50 [1, 6]: 1 to 10 µM | IC50 [2, 7]: > 10 µM

Compound: Nn1c(CCC(=O)O)nc2sc3c(c2c1=O)CCCC3 [Compound 7, 3-(3-Amino-4-oxo-3,4,5,6,7,8-hexahydro-benzo[4,5]thieno[2,3-d]pyrimidin-2-yl)-propionic acid]
IC50 [1, 6]: > 10 µM | IC50 [2, 7]: > 10 µM

Compound: NC(=O)COC(=O)c1sc2ccccc2c1Cl [Compound 8, 3-Chloro-benzo[b]thiophene-2-carboxylic acid carbamoylmethyl ester]
acetylation of tubulin in cells expressing SIRT2 [3]: more highly acetylated

Compound: Cc1sc(NC(=O)Cn2nc([N+](=O)[O-])cc2C)c(C(N)=O)c1C [Compound 9, 4,5-Dimethyl-2-[2-(5-methyl-3-nitro-pyrazol-1-yl)-acetylamino]-thiophene-3-carboxylic acid amide]
IC50 [1, 8]: > 10 µM

Compound: Cc1sc(NC(=O)c2ccc(Br)o2)c(C(N)=O)c1C [Compound 11, 5-Bromo-furan-2-carboxylic acid (3-carbamoyl-4,5-dimethyl-thiophen-2-yl)-amide]
IC50 [1, 8]: > 10 µM

Compound: Cc1sc(NC(=O)C2CCCO2)c(C(N)=O)c1C (stereo not shown) [Compound 15, Tetrahydro-furan-2-carboxylic acid (3-carbamoyl-4,5-dimethyl-thiophen-2-yl)-amide]
IC50 [1, 8]: > 10 µM

Compound: Cc1sc(NC(=O)C2CC2)c(C(N)=O)c1C [Compound 26, 2-(Cyclopropanecarbonyl-amino)-4,5-dimethyl-thiophene-3-carboxylic acid amide]
IC50 [1, 8]: > 10 µM

Compound: Cc1sc(NC(=O)c2ccncc2)c(C(N)=O)c1C [Compound 29, N-(3-Carbamoyl-4,5-dimethyl-thiophen-2-yl)-isonicotinamide]
IC50 [1, 8]: > 10 µM

Next, values leading:

IC50 [1, 8]: > 10 µM
Compound: Cc1sc(NC(=O)c2cnccn2)c(C(N)=O)c1C [Compound 30, Pyrazine-2-carboxylic acid (3-carbamoyl-4,5-dimethyl-thiophen-2-yl)-amide]

IC50 [1, 8]: < 1 µM
Compound: CC1CCc2c(sc(NC(=O)C3CCCC3)c2C(N)=O)C1 (stereo not shown) [Compound 32, 2-(Cyclopentanecarbonyl-amino)-6-methyl-4,5,6,7-tetrahydro-benzo[b]thiophene-3-carboxylic acid amide]

IC50 [1, 8]: > 10 µM
Compound: CC(C)CC(=O)Nc1sc2c(c1C(N)=O)CCCCCC2 [Compound 33, 2-(3-Methyl-butyrylamino)-4,5,6,7,8,9-hexahydro-cycloocta[b]thiophene-3-carboxylic acid amide]

IC50 [1, 8]: > 10 µM
Compound: NC(=O)c1c(NC(=O)C2CC2)sc2c1CCCCC2 [Compound 34, 2-(Cyclopropanecarbonyl-amino)-5,6,7,8-tetrahydro-4H-cyclohepta[b]thiophene-3-carboxylic acid amide]

IC50 [1, 8]: 1 to 10 µM
Compound: CCC(=O)Nc1sc2c(c1C(N)=O)CCC(C)C2 (stereo not shown) [Compound 35, 6-Methyl-2-propionylamino-4,5,6,7-tetrahydro-benzo[b]thiophene-3-carboxylic acid amide]

IC50 [1, 8]: > 10 µM
Compound: CC1CCc2c(sc(N)c2C(N)=O)C1 (stereo not shown) [Compound 36, 2-Amino-6-methyl-4,5,6,7-tetrahydro-benzo[b]thiophene-3-carboxylic acid amide]

IC50 [1, 8]: > 10 µM
Compound: CCC1CCc2c(sc(N)c2C(N)=O)C1 (stereo not shown) [Compound 38, 2-Amino-6-ethyl-4,5,6,7-tetrahydro-benzo[b]thiophene-3-carboxylic acid amide]

IC50 [1, 8]: > 10 µM
Compound: CSc1c(CC(=O)NCCO)n(C)c2ccc(C)cc12 [Compound 48, 2-(1,5-Dimethyl-3-methylsulfanyl-1H-indol-2-yl)-N-(2-hydroxy-ethyl)-acetamide]
